In patent US20100022559A1, “BISOXIMES AS FUNGICIDES” (BAYER CROPSCIENCE AG, priority 2006, published 2010):

assay: logP determination by HPLC on a reversed-phase column (C 18), EEC Directive 79/831 Annex V.A8; assay type: physicochemical; settings: [a] acidic range, pH 2.3, 0.1% aqueous phosphoric acid and acetonitrile
Protocol: The stated logP values were determined in accordance with EEC Directive 79/831 Annex V.A8 by HPLC (high performance liquid chromatography) on a reversed-phase column (C 18). Temperature: 43° C.

| SMILES | logP |
| --- | --- |
| C/C(=N\OCCCON)c1cccc(C)n1 [XII-10] | 0.27^[a] |
| C/C(=N\OCC1(CON)CC1)c1cc(C)cc(C)n1 [XII-12] | 0.61^[a] |
| C/C(=N\OCC1(CON)CC1)c1cccc(C)n1 [XII-13] | 0.78^[a] |
| C/C(=N\OCC(C)(C)CON)c1cc(C)cc(C)n1 [XII-14] | 0.8^[a] |
| C/C(=N\OCC(C)(C)CON)c1cc(C(F)(F)F)cc(C)n1 [XII-16] | 2.69^[a] |
| C/C(=N\OCCCCON)c1ccc(C)c(C)n1 [XII-17] | 0.51^[a] |

same assay, conditions: [b] LC-MS, acidic range, pH 2.7, 0.1% aqueous formic acid and acetonitrile

| SMILES | logP |
| --- | --- |
| C/C(=N\OCCCON)c1cccc(C)n1 [XII-10] | 0.27^[b] |
| C/C(=N\OCC1(CON)CC1)c1cc(C)cc(C)n1 [XII-12] | 0.61^[b] |
| C/C(=N\OCC1(CON)CC1)c1cccc(C)n1 [XII-13] | 0.78^[b] |
| C/C(=N\OCC(C)(C)CON)c1cc(C)cc(C)n1 [XII-14] | 0.8^[b] |
| C/C(=N\OCC(C)(C)CON)c1cc(C(F)(F)F)cc(C)n1 [XII-16] | 2.69^[b] |

same assay, conditions: [c] LC-MS, neutral range, pH 7.8, 0.001 molar aqueous ammonium bicarbonate solution and acetonitrile

| SMILES | logP |
| --- | --- |
| C/C(=N\OCCCON)c1cccc(C)n1 [XII-10] | 1.72^[c] |
| C/C(=N\OCC1(CON)CC1)c1cc(C)cc(C)n1 [XII-12] | 2.42^[c] |
| C/C(=N\OCC1(CON)CC1)c1cccc(C)n1 [XII-13] | 2.11^[c] |
| C/C(=N\OCC(C)(C)CON)c1cc(C)cc(C)n1 [XII-14] | 2.89^[c] |
| C/C(=N\OCC(C)(C)CON)c1cc(C(F)(F)F)cc(C)n1 [XII-16] | 3.92^[c] |

same assay, conditions: method marker [a] (footnote not shown); isomer A / isomer B / isomer mixture as noted in the cell

| SMILES | logP |
| --- | --- |
| CC(=NOCC(C)(O)CON=C(C)c1ccccn1)c1ccccn1 (centres unmarked) [compound 2] | 1.73^[a] |
| CC(=NOCC(O)CON=C(C)c1ccccn1)c1ccccn1 (centres unmarked) [compound 3] | 1.50^[a] |
| CCOC(=O)C(=NOCCCON=C(C(=O)OCC)c1cccc(C)n1)c1cccc(C)n1 [compound 76] | 4.31^[a] |
| CC(=NOCCCON=C(C)c1cccc(Br)n1)c1cccc(Br)n1 [compound 80] | 5.99^[a] |
| CC(=NOCC(F)(F)CON=C(C)c1cccc(C)n1)c1cccc(C)n1 [compound 86] | 4.00^[a] |
| CC(=NOCCCON=C(C)c1nc(C)cs1)c1nc(C)cs1 [compound 87] | 4.22^[a] |
| Cc1cccnc1C(CC(C)C)=NOCCCON=C(CC(C)C)c1ncccc1C [compound 93] | 5.96^[a] |
| CC(=NOCC(C)CON=C(C)c1cc(C(C)(C)C)ccn1)c1cc(C(C)(C)C)ccn1 (centres unmarked) [compound 104] | 5.88^[a] |
| CCc1ccnc(C(C)=NOCC(C)CON=C(C)c2cc(CC)ccn2)c1 (centres unmarked) [compound 105] | 3.62^[a] |
| CC(=NOCC(C)CON=C(C)c1ccc(Cl)nc1)c1ccc(Cl)nc1 (centres unmarked) [compound 106] | 4.79^[a] |
| CC(=NOCC(C)CON=C(C)c1ncccc1C)c1ncccc1C (centres unmarked) [compound 128] | 3.12^[a] |
| C=CCCC(=NOCCCON=C(CCC=C)c1ncccc1C)c1ncccc1C [compound 129] | 4.59^[a] |
| C=CCCC(=NOCC(C)CON=C(CCC=C)c1ncccc1C)c1ncccc1C (centres unmarked) [compound 130] | 5.06^[a] |

same assay, conditions: method marker [b]; isomer A / isomer B / isomer mixture as noted in the cell

| SMILES | logP |
| --- | --- |
| Cc1cc(C)nc(/C(N)=N/OCCCCO/N=C(\N)c2nc(C)cc(C)n2)n1 [compound 4] | 1.73^[b] |
| Cc1cc(C)nc(/C(N)=N/OCO/N=C(\N)c2nc(C)cc(C)n2)n1 [compound 5] | 1.49^[b] |
| CC(=NOCCCCON=C(C)c1cccc(C)n1)c1cccc(C)n1 [compound 6] | 3,16^[b] |
| CC(=NOCON=C(C)c1cccc(C)n1)c1cccc(C)n1 [compound 7] | 2.39^[b] |
| C=C(CO/N=C(\N)c1nc(C)cc(C)n1)CO/N=C(\N)c1nc(C)cc(C)n1 [compound 8] | 1.80^[b] |
| CC(=NOCC1(CON=C(C)c2cccc(C)n2)COC1)c1cccc(C)n1 [compound 19] | 2.45^[b] |
| C=C(CON=C(C)c1ccc(Cl)s1)CON=C(C)c1ccc(Cl)s1 [compound 20] | 5.88^[b] |
| C=C(CON=C(C)c1cccn1C)CON=C(C)c1cccn1C [compound 21] | 5.03^[b] |
| C=C(CON=C(C)c1ccc(C)nc1)CON=C(C)c1ccc(C)nc1 [compound 22] | 1.37^[b] |
| C=C(CON=C(C)c1cc(Cl)cc(Cl)c1)CON=C(C)c1cccc(C)n1 [compound 24] | 6.30^[b] |
| C=C(CON=C(C)c1c(C)noc1C)CON=C(C)c1c(C)noc1C [compound 25] | 3,57^[b] |
| CC(=NOCCON=C(C)c1ccncc1)c1ccncc1 [compound 28] | 0.66^[b] |
| CC(=NOCCCON=C(C)c1ccncc1)c1ccncc1 [compound 29] | 1.23^b] |
| CC(=NOCCON=C(C)c1ccccn1)c1ccccn1 [compound 30] | 2.21^[b] |
| CC(=NOCCCON=C(C)c1ccccn1)c1ccccn1 [compound 31] | 2.67^[b] |
| CC(=NOCCCON=C(C)c1cccnc1)c1cccnc1 [compound 33] | 1.51^[b] |
| CC(=NOCCON=C(C)c1cc(C)ccn1)c1cc(C)ccn1 [compound 34] | 1.71^[b] |
| CC(=NOCCCON=C(C)c1cc(C)ccn1)c1cc(C)ccn1 [compound 35] | 1.94^[b] |
| Cc1nc(/C(N)=N/OCCCCO/N=C(\N)c2nc(C)c3c(n2)CCCC3)nc2c1CCCC2 [compound 36] | 2.58^[b] |

| SMILES | logP |
| --- | --- |
| COCc1nc(/C(N)=N/OCCCCO/N=C(\N)c2nc(COC)c(C)c(COC)n2)nc(COC)c1C [compound 37] | 1.75^[b] |
| N/C(=N\OCCCCO/N=C(\N)c1ncc(F)cc1F)c1ncc(F)cc1F [compound 38] | 2.45^[b] |
| Cc1nc(/C(N)=N/OCO/N=C(\N)c2nc(C)c3c(n2)CCCC3)nc2c1CCCC2 [compound 39] | 2.29^[b] |
| COCc1nc(/C(N)=N/OCO/N=C(\N)c2nc(COC)c(C)c(COC)n2)nc(COC)c1C [compound 40] | 1.35^[b] |
| Cc1nc(/C(N)=N/OCO/N=C(\N)c2nc(C)c(Cl)c(C)n2)nc(C)c1Cl [compound 41] | 2.36^[b] |
| N/C(=N\OCO/N=C(\N)c1nc(C2CC2)cc(C2CC2)n1)c1nc(C2CC2)cc(C2CC2)n1 [compound 42] | 2.92^[b] |
| C=C(CO/N=C(\N)c1nc(C)c2c(n1)CCCC2)CO/N=C(\N)c1nc(C)c2c(n1)CCCC2 [compound 43] | 2.67^[b] |
| C=C(CO/N=C(\N)c1nc(COC)c(C)c(COC)n1)CO/N=C(\N)c1nc(COC)c(C)c(COC)n1 [compound 44] | 1.83^[b] |
| C=C(CO/N=C(\N)c1ncc(F)cc1F)CO/N=C(\N)c1ncc(F)cc1F [compound 45] | 2.42^[b] |
| C=C(CO/N=C(\N)c1nc(C)c(Cl)c(C)n1)CO/N=C(\N)c1nc(C)c(Cl)c(C)n1 [compound 46] | 2.84^[b] |
| C=C(CO/N=C(\N)c1nc(C2CC2)cc(C2CC2)n1)CO/N=C(\N)c1nc(C2CC2)cc(C2CC2)n1 [compound 47] | 3.33^[b] |
| CC(=NOCCON=C(C)c1cnc(-c2ccccc2)s1)c1cnc(-c2ccccc2)s1 [compound 48] | 6.51^[b] |
| CC(=NOCCCON=C(C)c1cnc(-c2ccccc2)s1)c1cnc(-c2ccccc2)s1 [compound 49] | 7.07^[b] |
| CC(=NOCCON=C(C)c1nc(C)c(C)s1)c1nc(C)c(C)s1 [compound 50] | 4.35^[b] |
| CC(=NOCCCON=C(C)c1nc(C)c(C)s1)c1nc(C)c(C)s1 [compound 51] | 5.03^[b] |
| CC(=NOCCON=C(C)c1nc(C)cs1)c1nc(C)cs1 [compound 52] | 3.63^[b] |
| CC(=NOCCON=C(C)c1sc(C)nc1C)c1sc(C)nc1C [compound 53] | 2.70^[b] |
| CC(=NOCCCON=C(C)c1sc(C)nc1C)c1sc(C)nc1C [compound 54] | 3.10^[b] |
| CC(=NOCCON=C(C)c1ncc(Cl)cc1Cl)c1ncc(Cl)cc1Cl [compound 55] | 5.39^[b] |

| SMILES | logP |
| --- | --- |
| CC(=NOCCCON=C(C)c1ncc(Cl)cc1Cl)c1ncc(Cl)cc1Cl [compound 56] | 5.78^[b] |
| Cc1cc(C)nc(/C(N)=N/OCO/N=C(\N)c2cc(C)cc(C)n2)c1 [compound 58] | 1.87^[b] |
| C=C(CON=C(C)c1ccccn1)CON=C(C)c1ccccn1 [compound 60] | 3.00^[b] |
| C=C(CON=C(C)c1ccc2ccccc2n1)CON=C(C)c1ccc2ccccc2n1 [compound 63] | 6.51^[b] |
| C=C(CON=C(C)c1nc(C)cc(OC)n1)CON=C(C)c1nc(C)cc(OC)n1 [compound 64] | 3.17^[b] |
| C=C(CON=C(C)c1ncccc1C)CON=C(C)c1ncccc1C [compound 65] | 2.90^[b] |
| CC(=NOCC(=O)CON=C(C)c1cccc(C)n1)c1cccc(C)n1 [compound 71] | 2.20^[b] |
| CC(=NOCCCCCCCCCCON=C(C)c1cccc(C)n1)c1cccc(C)n1 [compound 74] | 7.36^[b] |
| C=C(CON=C(C)c1cccs1)CON=C(C)c1nccs1 [compound 78] | 4.31^[b] |
| CC(=NOCC(CON=C(C)c1cccc(C)n1)=NO)c1cccc(C)n1 [compound 82] | 1.91^[b] |
| Cc1nc(C(N)=NOCC(C)CON=C(N)c2csc(C)n2)cs1 (centres unmarked) [compound 83] | 3.54^[b] |
| CON=C(CON=C(C)c1cccc(C)n1)CON=C(C)c1cccc(C)n1 [compound 113] | 3.26^[b] |
| C=C(CON=C(C)c1cccc(C(C)=O)n1)CON=C(C)c1cccc(C(C)=O)n1 [compound 120] | 5.15^[b] |
| Cc1cc(C)nc(C(N)=NOCCCCON=C(N)c2cc(C)cc(C)n2)c1 [compound 123] | 2.67^[b] |
| CC(=NOCCCCON=C(C)c1ccccn1)c1ccccn1 [compound 124] | 3.00^[b] |
| CC(=NOCCCCON=C(C)c1nc(C)c(C)s1)c1nc(C)c(C)s1 [compound 125] | 5.59^[b] |
| CC(=NOCON=C(C)c1nc(C)c(C)s1)c1nc(C)c(C)s1 [compound 126] | 4.46^[b] |
| C=C(CON=C(N)c1cc(C)cc(C)n1)CON=C(N)c1cc(C)cc(C)n1 [compound 127] | 2.7^[b] |

same assay, conditions: reversed-phase HPLC column (C 18); HCO2H; HPLC reversed-phase column (C 18), 43° C.; read-out: logP (HCO2H)

| SMILES | chromatographic logP |
| --- | --- |
| C/C(=N\OCC1(CON)CC1)c1ccc(C)c(C)n1 [XII-8, (1E)-1-(5,6-dimethylpyridin-2-yl)ethanone O-({1-[(aminooxy)methyl]-cyclopropyl}methyl)oxime] | 0.73 |

same assay, conditions: reversed-phase HPLC column (C 18); [a] acidic range, pH 2.3, 0.1% aqueous phosphoric acid and acetonitrile; read-out: logP

| SMILES | chromatographic logP |
| --- | --- |
| C/C(=N\OCC1(CON)CC1)c1ccc(C)c(C)n1 [XII-8, (1E)-1-(5,6-dimethylpyridin-2-yl)ethanone O-({1-[(aminooxy)methyl]-cyclopropyl}methyl)oxime] | 0.53 |

same assay, conditions: reversed-phase HPLC column (C 18); [b] LC-MS, acidic range, pH 2.7, 0.1% aqueous formic acid and acetonitrile; read-out: logP

| SMILES | chromatographic logP |
| --- | --- |
| C/C(=N\OCC1(CON)CC1)c1ccc(C)c(C)n1 [XII-8, (1E)-1-(5,6-dimethylpyridin-2-yl)ethanone O-({1-[(aminooxy)methyl]-cyclopropyl}methyl)oxime] | 0.53 |

same assay, conditions: reversed-phase HPLC column (C 18); [c] LC-MS, neutral range, pH 7.8, 0.001 molar aqueous ammonium bicarbonate solution and acetonitrile; read-out: logP

| SMILES | chromatographic logP |
| --- | --- |
| C/C(=N\OCC1(CON)CC1)c1ccc(C)c(C)n1 [XII-8, (1E)-1-(5,6-dimethylpyridin-2-yl)ethanone O-({1-[(aminooxy)methyl]-cyclopropyl}methyl)oxime] | 2.44 |
